This is an account of results in US5019574A, “3,4-diaminoquinoline and 3,4-diamino-5,6,7,8-tetrahydroquinoline compounds useful for improving psychoneural function” (Chugai Seiyaku Kabushiki Kaisha, priority 1988, dated 1991).

For one assay, the target named is T1, MAO-A (Rattus norvegicus, UniProt P21396).
T1 construct: A crude synaptosomal fraction (P2) was obtained from the brain of rats (F344/Crj); from tissue; host or cells: rat (F344/Crj) brain, crude synaptosomal fraction (P2), homogenized
T1 sequence (P21396 1-526): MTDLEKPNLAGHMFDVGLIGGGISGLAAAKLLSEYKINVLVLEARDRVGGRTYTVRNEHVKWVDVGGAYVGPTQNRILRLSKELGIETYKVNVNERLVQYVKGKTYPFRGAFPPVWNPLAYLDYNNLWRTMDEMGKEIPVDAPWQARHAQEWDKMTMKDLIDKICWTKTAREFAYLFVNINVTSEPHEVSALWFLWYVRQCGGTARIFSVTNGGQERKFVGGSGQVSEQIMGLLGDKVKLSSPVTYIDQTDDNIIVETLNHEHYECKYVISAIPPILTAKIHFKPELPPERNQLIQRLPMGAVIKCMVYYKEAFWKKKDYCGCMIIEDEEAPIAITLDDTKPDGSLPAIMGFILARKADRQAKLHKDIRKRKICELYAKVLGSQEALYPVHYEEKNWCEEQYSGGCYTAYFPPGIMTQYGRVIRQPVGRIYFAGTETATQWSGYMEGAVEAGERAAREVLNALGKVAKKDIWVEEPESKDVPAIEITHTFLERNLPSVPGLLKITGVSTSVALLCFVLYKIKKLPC
Kind of assay: Inhibition of monoamine oxidase: MAO-A. The conditions noted are these: read-out: Inhibition rate (%) MAO-A. Format: biochemical, rats (F344/Crj). Here is the method: (§1) Inhibition of Monoamine Oxidase (MAO):
(§2) A crude synaptosomal fraction (P2) was obtained from the brain of rats (F344/Crj) in the usual manner and homogenized to perform MAO activity measurements. The substrate was 12 μM [^14 C]-serotonin in the case of MAO-A activity measurements, and 5 μM [^14 C]-2-phenethylamine in the case of MAO-B activity measurements. In accordance with the method of R. J. Wurtman and J. Axelrod described in Biochemical Pharmacol. 12, […], 1963, the homogenates were incubated in 100 mM phosphate buffer (pH 7.4) at 37° C. for 20 minutes and the effect of adding selected compounds at a concentration of 10 μM was evaluated.

The next assay concerns the target T2, MAO-B (Rattus norvegicus, UniProt P19643).
T2 construct: A crude synaptosomal fraction (P2) was obtained from the brain of rats (F344/Crj); from tissue; host or cells: rat (F344/Crj) brain, crude synaptosomal fraction (P2), homogenized
T2 sequence (P19643 1-520): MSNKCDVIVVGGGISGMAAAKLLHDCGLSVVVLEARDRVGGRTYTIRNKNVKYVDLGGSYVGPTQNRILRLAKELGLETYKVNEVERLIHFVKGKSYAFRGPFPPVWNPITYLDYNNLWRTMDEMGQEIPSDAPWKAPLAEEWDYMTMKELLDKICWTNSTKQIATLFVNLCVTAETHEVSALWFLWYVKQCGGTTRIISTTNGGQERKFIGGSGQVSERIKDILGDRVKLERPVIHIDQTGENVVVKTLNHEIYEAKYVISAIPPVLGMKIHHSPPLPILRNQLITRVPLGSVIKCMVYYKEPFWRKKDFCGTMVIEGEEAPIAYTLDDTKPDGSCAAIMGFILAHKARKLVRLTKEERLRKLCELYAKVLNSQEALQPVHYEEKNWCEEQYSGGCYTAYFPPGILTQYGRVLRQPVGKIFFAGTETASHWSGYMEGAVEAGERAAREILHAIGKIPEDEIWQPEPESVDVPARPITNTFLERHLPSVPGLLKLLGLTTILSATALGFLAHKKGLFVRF
Kind of assay: Inhibition of monoamine oxidase: MAO-B. The conditions noted are these: read-out: Inhibition rate (%) MAO-B. In kind it is biochemical, rats (F344/Crj). Here is the method: as §1, §2

The test system of assay [1] is uptake of dopamine into synaptosomes. The assay is described as follows: Inhibition of catecholamine uptake: 3H-dopamine uptake into synaptosomes. In kind it is biochemical, rats (F344/Crj). Particulars: 1 μM; dopamine uptake in the absence of drugs taken as 100. The method, then: (§3) A crude synaptosomal fraction (P2) was obtained from the brain of rats (F344/Crj) in the usual manner. In accordance with the method of S. H. Snyder and J. T. Coyle described in Journal of Pharmacology and Experimental Therapeutics, 165(1), 78-86, 1969, the fraction P2 was incubated in a Krebs-Henseleit bicarbonate buffer solution at 37° C. for 10 minutes together with 50 nM ^3 H-norepinephrine (0.25 jμCi). Thereafter, the uptake of norepinephrine into the synaptosomes was measured by the filtration method. Selected compounds were added at a concentration of 1 μM to the solution being incubated and their effect on norepinephrine uptake was examined. The control drug was tetrahydroaminoacridine (THA).
(§4) Inhibition of Catecholamine Uptake:
The uptake of dopamine into synaptosomes was measured by repeating the procedure of Test Example 2 except that 50 nM ^3 H-norepinephrine (0.25 μCi) was replaced by 15 nM ^3 H-dopamine (0.68 μCi). The control drug was tetrahydroaminoacridine (THA). The result is shown in Table 5 in terms of percentage, with dopamine uptake in the absence of drugs being taken as 100.

The test system of assay [2] is norepinephrine uptake into the synaptosomes. The assay is described as follows: Inhibition of catecholamine uptake: 3H-norepinephrine uptake into synaptosomes. In kind it is biochemical, rats (F344/Crj). The conditions noted are these: 1 μM; norepinephrine uptake in the absence of drug compounds taken as 100. Here is the method: as §4, §3
The results are shown in Table 3 in terms of percentage, with norepinephrine uptake in the absence of drug compounds being taken as 100.

A further assay concerns male ICR mice. The assay is described as follows: Improvement of memory and learning ability tested by passive avoidance response. In kind it is in vivo. The conditions noted are these: dose 10 (μg/kg i.p.); retention trial 24 hours after acquisition trial. The method, then:
Improvement of memory and Learning Ability Tested by Passive Avoidance Response:
Four groups of male ICR mice (10-14 weeks old). each consisting of 10 animals, were used in the experiment. Except for one control group, the mice were administered with selected compounds of the present invention. The experimental chamber consisted of a light and a dark compartment and an electric current shock source was connected to the floor grid in the dark compartment.
The experimental sessions consisted of acclimation. acquisition, and retention trials and were performed for […], one trial per day. In the acclimation trial, animals were placed in the light compartment of the experimental chamber and left there for 5 minutes to acclimate them to the apparatus. In the acquisition trial which was conducted on the 2nd day, the animals were placed in the light compartment and when they entered the dark compartment, they were confined and given an a.c. electric shock (1 mA) through the floor grid for 10 seconds. In the retention trial which was conducted 24 hours after the acquisition trial, the animals were placed in the light compartment of the chamber and the step-through latency (i.e., the time required for the animals to enter the dark compartment) was measured. A physiological saline solution was administered at the acclimation trial to all of the animals. At the acquisition trial, selected compounds were administered in amounts of 10 μg/kg of body weight (1 ml/100 g). The control group was administered the same amount of physiological saline solution 60 minutes before the start of the trial. All administrations were intraperitoneal.

The target in the next assay is T3, acetylcholinesterase (Electrophorus electricus, UniProt O42275).
T3 construct: purchased Sigma C-2888
T3 sequence (O42275 24-633): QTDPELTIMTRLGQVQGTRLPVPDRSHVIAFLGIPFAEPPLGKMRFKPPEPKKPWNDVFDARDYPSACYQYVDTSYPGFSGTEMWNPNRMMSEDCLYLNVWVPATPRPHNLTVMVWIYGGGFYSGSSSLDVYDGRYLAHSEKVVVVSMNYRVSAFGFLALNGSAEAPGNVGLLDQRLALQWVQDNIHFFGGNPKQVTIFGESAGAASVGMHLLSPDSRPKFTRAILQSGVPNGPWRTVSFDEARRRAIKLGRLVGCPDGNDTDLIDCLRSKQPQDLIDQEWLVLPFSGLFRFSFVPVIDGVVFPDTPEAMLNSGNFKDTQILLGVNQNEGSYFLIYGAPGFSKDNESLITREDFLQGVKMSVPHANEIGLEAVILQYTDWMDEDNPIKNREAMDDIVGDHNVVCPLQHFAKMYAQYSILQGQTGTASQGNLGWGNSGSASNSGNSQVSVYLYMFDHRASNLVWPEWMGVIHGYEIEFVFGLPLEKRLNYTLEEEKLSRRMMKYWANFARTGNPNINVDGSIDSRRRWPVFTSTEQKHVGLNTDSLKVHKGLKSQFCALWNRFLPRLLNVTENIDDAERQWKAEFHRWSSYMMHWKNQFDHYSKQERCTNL
The assay is described as follows: Inhibition of acetylcholinesterase activity. The conditions noted are these: activity without drug compound taken as 100, average of three measurements, read-out: Inhibition rate (%). Format: biochemical. Here is the method: Inhibition of Acetylcholinesterase Activity:
Acetylcholinesterase activity was assayed in accordance with the method of S. H. Sterri and F. Fonnum described in European Journal of Biochemistry, 91: 215-222, 1978. The method consisted of incubating 0.5 μU of authentic acetylcholinesterase ([…]) (Sigma, No. C-2888) at 30° C. for 15 minutes in a 20 mM sodium phosphate buffer (pH 7.4). with 1.3 mM [1^-14 C] acetylcholine (0.025 μCi) being used as a substrate. Selected compounds of the general formula (I) were added at a concentration of 1 μM to the reaction solution and the resulting effect on enzymatic activity was evaluated.
The result was obtained as the average of three measurements and shown in Table 2 in terms of percentage, with the activity for the case where no drum compound was added being taken as 100.

Another assay relates to male rats (F344). In kind it is in vivo. Particulars: p<0.05, n=6, AF64AP-treated rats.
[3] abbreviates: 10 μM, 12 μM [14C]-serotonin substrate, None = 100.
Where [4] appears, read: 10 μM, 5 μM [14C]-2-phenethylamine substrate, None = 100.

Read-outs that look alike come from different tables or passages of the source.

The inhibition is how much of the control response was suppressed. In the case of `Nc1ccnc(C2CCCCC2=O)c1N1CCOCC1` (centres unmarked) [Compound 49], the results for the inhibition at 10 µM at MAO-A (setting [3]) and on MAO-B (setting [4]) were 54.5% and 71.2%, respectively. For the same compound, the “Inhibition rate (%)” value in assay [1] came out at 67.5%.

`Nc1c2c(nc(C3CCCCC3O)c1N1CCCCC1)CCCC2` (centres unmarked) [Compound 9]: the “Inhibition rate (%)” value in assay [2] turned out to be 69.4%; in assay [1] it was 78.6%. Further, the inhibition at 10 µM on MAO-A (setting [3]) was determined as 59.4%; on MAO-B (setting [4]), 89.4%. The “Step through latency” value in the assay with male ICR mice is 54.4 ± 7.2 s. The inhibition at 1 µM at acetylcholinesterase came out at 38.8%.

As to `Nc1c2c(nc3ccccc13)CCCC2` [control, tetrahydroaminoacridine, reference compound], the inhibition at 10 µM at MAO-A worked out at 60.8%; on MAO-B, 90.3%.

As for `CCNc1c(N2CCOCC2)nc2ccccc2c1N` [Compound 52, 4-amino-3-ethylamino-2-morpholinoquinoline], the “Inhibition rate (%)” value in assay [2] was 79.8%; in assay [1], 57.8%. Besides, the inhibition at 10 µM amounted to 0% on MAO-A (setting [3]) and 63% at MAO-B (setting [4]).

In the case of `Nc1c(N2CCCCC2)c(C2CCCCC2=O)nc2ccccc12` (centres unmarked) [Compound 7, 4-amino-3-piperidino-2-(2'-oxocyclohexyl)quinoline], the “Inhibition rate (%)” value was found to be 79.0% in assay [2] and 86.4% in assay [1]. For the same compound, the inhibition at 10 µM was determined as 58.7% at MAO-A (setting [3]) and 87.5% on MAO-B (setting [4]). In the assay on male ICR mice, the “Step through latency” value was found to be 104.1 ± 28.5 s. Moreover, the “number of correct responses vs vehicle control” value with male rats (F344) (10 mg/kg orally) and in the assay on male rats (F344) (30 mg/kg orally) was “statistically significant increase in the number of correct responses” each time. Moreover, at acetylcholinesterase, the inhibition at 1 µM stood at 38.1%.
